This note sets out measurements from US8796328B2, “TRPV1 antagonists” (AbbVie Inc., priority 2012, dated 2014).

Test [1] concerns rats. Briefly: Rat tail immersion assay (noxious thermosensation, 55° C. water bath). Type of test: in vivo. The protocol:
Compounds were tested for their effects on noxious thermosensation using the tail immersion assay. Testing was performed one hour following oral administration of 100 μmol/kg of the compound in 10% ethanol/20% Tween-80/70% PEG-400 (2 mL/kg). Mophine (6 mg/kg) was administered interperitoneally (i.p.) using saline (2 mL/kg) as the vehicle. For testing, a circulating water bath was heated to 55° C. Thirty to sixty minutes post dosing, the rats were handled for a few seconds to calm them down and then cupped with their back against the testers hand at a slight angle with head facing away from tester. With rat in one hand and a 0.01 second stopwatch in the other hand, the tail was quickly immersed 6-8 cm in water bath or to a distance leaving 2-3 cm of tail out of water. The timer was started simultaneously. When the rat flinched or attempted withdrawal, timer was immediately stopped and the rat's tail was quickly removed from water bath. This response latency (in seconds) was recorded. Process was repeated 3 times with 3-4 minutes between readings for a final average.
For a given example, a percent increase in the average response latency (in seconds) for tail withdrawal relative to a vehicle control was determined % increase=[(tc−tv)/tv]×100%
tc=response time (in seconds) with oral dosing of compounds
tv=response time (in seconds) with oral dosing of vehicle
The % increases in tail withdrawal latency relative to vehicle control are divided into the following categories: […]

Test [2] has as its system rats. Nature of the test: Sodium iodoacetate-induced knee joint osteoarthritic pain model (hind limb grip force). Type of test: in vivo. The following applies: rat, 30 mg/kg single acute oral dose, assessed 1 hour following administration, 20 days after iodoacetate. The protocol:
Unilateral knee joint osteoarthritis was induced in the rats by a single intra-articular (i.a.) injection of sodium iodoacetate (3 mg in 0.05 mL sterile isotonic saline) into the right knee joint cavity under light isoflurane anesthesia using a 26G needle. […] Pain behavioral assessment of hind limb grip force was conducted by recording the maximum compressive force exerted on the hind limb strain gauge setup, in a commercially available grip force measurement system (Columbus Instruments, Columbus, Ohio). The grip force data was converted to a maximum hindlimb cumulative compressive force (CFmax) (gram force)/kg body weight for each animal. The analgesic effects of test compounds were determined 20 days following the i.a. injection of sodium iodoacetate. The vehicle control group for each compound being tested was assigned 0% whereas the age matched naïve group was assigned as being 100% (normal). The % effect for each dose group was then expressed as % return to normalcy compared to the naïve group. Test compounds were administered orally in 10% ethanol/20% Tween 80/70% polyethylene glycol-400 vehicle at a volume of 2 mL/kg. The assessment of the analgesic effects of test compounds was made 1 hour following oral administration. […]

The target of test [3] is human TRPV1 receptor (hTRPV1) (Homo sapiens (Human), UniProt Q8NER1). Briefly: Acid activation assay (pH 5.0, FLIPR intracellular Ca2+). Type of test: cell-based. The following applies: 37.5 μM compound.

The structures appear in SMILES notation.

Chain of human TRPV1 receptor (hTRPV1) (Q8NER1 whole entry): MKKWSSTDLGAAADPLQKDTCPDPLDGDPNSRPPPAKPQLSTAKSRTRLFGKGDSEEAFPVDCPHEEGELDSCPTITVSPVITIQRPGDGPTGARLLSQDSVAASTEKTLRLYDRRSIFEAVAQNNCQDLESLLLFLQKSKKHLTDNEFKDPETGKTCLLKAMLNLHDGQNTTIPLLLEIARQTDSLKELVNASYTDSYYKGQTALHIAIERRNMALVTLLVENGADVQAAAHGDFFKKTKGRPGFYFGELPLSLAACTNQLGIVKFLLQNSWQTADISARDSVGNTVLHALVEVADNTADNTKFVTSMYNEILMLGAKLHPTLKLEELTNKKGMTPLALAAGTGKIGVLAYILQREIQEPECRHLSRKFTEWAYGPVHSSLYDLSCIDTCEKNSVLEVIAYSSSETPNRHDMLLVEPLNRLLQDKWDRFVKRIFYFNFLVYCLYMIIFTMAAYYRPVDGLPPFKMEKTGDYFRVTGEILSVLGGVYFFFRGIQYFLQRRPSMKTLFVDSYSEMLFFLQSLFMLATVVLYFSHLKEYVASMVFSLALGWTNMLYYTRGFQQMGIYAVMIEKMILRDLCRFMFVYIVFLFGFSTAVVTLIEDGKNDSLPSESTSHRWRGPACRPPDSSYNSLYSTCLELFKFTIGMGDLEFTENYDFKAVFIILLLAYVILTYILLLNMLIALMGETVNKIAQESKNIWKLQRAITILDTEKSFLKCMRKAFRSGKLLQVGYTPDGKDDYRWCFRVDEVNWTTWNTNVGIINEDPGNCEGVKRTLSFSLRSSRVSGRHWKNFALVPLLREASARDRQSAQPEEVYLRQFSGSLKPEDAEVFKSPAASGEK

For `CS(=O)(=O)Nc1ccc(CNC(=O)N[C@@H]2CC(CF)(CF)Oc3cc(C(F)(F)F)ccc32)cc1F` [Example 10, N-{4-[({[(4R)-2,2-bis(fluoromethyl)-7-(trifluoromethyl)-3,4-dihydro-2H-chromen-4-yl]carbamoyl}amino)methyl]-2-fluorophenyl}methanesulfonamide], the “% Increase in Tail Withdrawal Latency” value with rats [1] (rat, oral 100 μmol/kg, one hour post dosing, relative to vehicle) is on record as “−”. The “increase in tail withdrawal latency relative to vehicle-treated animals” value in the test with rats [1] (rats, after oral administration) was less than 10%. In addition, the “% effect (% return to normalcy) in iodoacetate-induced osteoarthritic pain model” value in the test on rats [2] is on record as 62%. Further, in test [3] (percentage of the maximal pH 5.0-induced response remaining, read-out: hTRPV1 H+ (max % remain)), the remaining activity at 37.5 µM was determined as 72%. The “human TRPV1 H+ (max % remain)” value in test [3] (Table 2, percentage of maximal pH 5.0-induced response) is recorded as 72%.
